# From patent US11441029B1, “Packaging films, and methods of preparation thereof” (King Abdulaziz University, priority 2022, dated 2022)
# Tested on: gram-positive and gram-negative bacteria
# Experiment: Antimicrobial activity of films, bacteria not specified at the place
# Type: cell-based
# Procedure: Active cultures were prepared by inoculating freshly cultured bacteria or pure colony (24 hours (h)) into lysogeny broth (LB) broth, then incubated in a shaker for 24 h at 30° C. with 200 revolutions per minute (rpm). The optical density (OD) for each culture was set to 0.05, equivalent to 1-2×10^5 colony forming units/millilitre (CFU/mL) by adding LB broth. […] Thereafter, re-suspension was carried out for each sample using 4.6 mL of 0.85 wt. % sodium chloride. Serial dilution was conducted, and 100 microlitre (μL) for each dilution was transferred to LB agar plates. Then, those agar plates were allowed to undergo incubation for 24 h at 30° C. Gentamicin was used as a positive control, and pure PBS film were used as negative control for the microbial culture. […] The whole antimicrobial process was conducted in triplicate to obtain average values. The microbial population was calculated as log CFU per mL sample, and the actual number in each dilution was determined for dishes containing 30-300 colonies using Equation 1 as below: [formula] where C refers to total counts of bacteria in all retained dishes; V refers to volume used for sample dilution; n1 refers to number of retained dishes in first dilution; n2 refers to number of retained dishes in second dilution; D refers to dilution factor of first dilution.
compound,measurement,value
"[O-]n1ccccc1=S.[O-]n1ccccc1=S.[Zn+2] [SAN, zinc, bis[1-(hydroxy-.kappa.O)-2(1H)-pyridinethionato-.kappa.S2]-,(T-4)-]",antimicrobial activity (general statement),exhibited antimicrobial effects
